Laboratory results as given in a melting point compilation (Tetko et al.; mined from patent text by program, amines drawn as free bases though some values may be those of a salt).

Compound	melting point
COc1ccc2c(c1)CCC(CC(=O)N1CCCCC1)C2 (stereo unspecified)	59 to 61 °C
Brc1nc(Br)n(COCc2ccccc2)c1Sc1ccccc1	89 to 90 °C
CCCC(N)CCCCCCC(=O)O (stereo unspecified)	107 to 108 °C
COc1cc2c(cc1OC)CN(CCCOc1ccc(NC(=O)c3ccc4ccccc4c3)cc1)CC2	189 to 190 °C
CCCCCCCCN(C=O)C1CC(C)(C)N(C=CC(=O)OCC)C(C)(C)C1	58 to 60 °C
CC(C)(C)OC(=O)N[C@@H]1Cc2ccccc2C[C@H]1O (relative stereo)	149 to 150 °C
Cn1c(=O)c(=O)[nH]c2cc([N+](=O)[O-])ccc21	356 °C
CCOC(=O)C1=CCCCC1S(=O)(=O)Nn1c(Br)ccc1Br (stereo unspecified)	123 to 124 °C
CS(=O)(=O)Nc1ccc(CCCC(=O)OCc2ccccc2)cc1	88 to 89 °C
CC(C)(C)OC(=O)c1ccc(N2CC(CO)OC2=O)cc1F (stereo unspecified)	148 to 149 °C
O=c1[nH]c2ccc(Cl)cc2c(=O)n1S(=O)(=O)c1ccc(Cl)cc1	223 to 225 °C
CN=NNc1ccc(C)cc1	77 to 80 °C
N#Cc1c(N2CCN(C(=O)c3cccs3)CC2)c2ccccc2[nH]c1=O	264 °C
COC(=O)c1ccc(C(c2ccccc2)(c2ccccc2)c2ccccc2)cn1	160 to 164 °C
CC(Cc1ccc(-c2ccc(Cl)cc2)cc1Cl)NC(=O)c1cn(C)nc1C(F)F (stereo unspecified)	96 to 98 °C
O=[N+]([O-])c1cccc2ccc3nc(O)c(O)nc3c12	> 300 °C
COc1ccc(C(=O)c2cccc(C#N)c2)cc1	85 to 88 °C
CC(C)(C)c1ccc(-c2nc(COCCc3cccc(NS(=O)(=O)C(F)(F)F)c3)cs2)cc1	110 to 112 °C
CCCCOC(=O)c1c(Cn2ccnc2)nc2cc(OC)c(OC)cc2c1-c1ccc(OC)c(OC)c1	140 to 141 °C
O=C1CCCN1C(=O)Oc1cccc([N+](=O)[O-])c1	130 to 131 °C
CCOC(=O)c1nccn1Cc1ccccc1N	104 to 106 °C
Cn1c(C(=O)NCCCn2ccnc2)cc2ccccc21	125 to 129 °C
O=C(c1ccc(Br)cc1)C1CCN(CCc2c[nH]c3ccccc23)CC1	178 to 180 °C

Compound	melting point
CCOC(=O)c1cnc2n(c1=O)c1ccccc1c1ncc(C(=O)OCC)c(=O)n12	193 to 195 °C
COCCCc1cc(F)c2ncc(C(=O)NCc3ccc(Cl)cc3)c(O)c2c1	189 to 192 °C
CC(=O)Oc1ccc(C=CC(=O)Nc2cc(C)c(OCc3ccccc3)c(C)c2)cc1OC(C)=O	125 to 127 °C
CCCc1nn(-c2ccc(C(F)(F)F)cn2)cc1CCCOc1cc(CCC(=O)O)n(C)n1	80 to 81 °C
CCCCC(Cn1cncn1)(C(=O)O)c1ccc(Cl)cc1 (stereo unspecified)	169 to 171 °C
Cn1c(-c2ccc(N3CCOCC3)cc2)cnc1[C@H](Cc1ccccn1)N(C=O)c1nc2cc(Cl)ccc2s1	96 to 99 °C
Cc1cncn1CC(O)c1ccccc1 (stereo unspecified)	193 °C
O=C1C2CCCN2C(=O)N1c1ccc([N+](=O)[O-])c2ccccc12 (stereo unspecified)	215 to 217 °C
N#Cc1c(N2CCN(C(=O)c3cccs3)CC2)c2cccnc2n(Cc2ccccc2)c1=O	263 °C
CN1Cc2c(C#CBr)ncn2-c2ccc(F)cc2C1=O	167 °C
C#CCOc1nc(-n2ccnc2)c(I)c(C(F)(F)F)n1	128 to 129 °C
Cc1cccc(C)c1N1CC(C)N(c2cccc(C(F)(F)F)c2)C1=N (stereo unspecified)	160 to 166 °C
Cc1ccc(S(=O)(=O)OCCCC(O)c2cccc3c(=O)c(C)c(-c4ccccc4)oc23)cc1 (stereo unspecified)	123 to 124 °C
Nc1cccnc1Cc1ccccc1	84 to 86 °C
CC(=O)SCC(Cc1ccccc1)C(=O)Nc1c(Cl)cccc1C(=O)O (stereo unspecified)	123 to 127 °C
CN1C(=O)[C@@H](CN2CCCCC2)C[C@H]1c1ccc(-c2ccccc2Cl)s1	73 to 75 °C
O=C1C(O)SCN1c1cccc([N+](=O)[O-])c1 (stereo unspecified)	129 to 131 °C
CNC(=O)c1ccc(N2CCN(Cc3cc4c(c(OC)c3)OC(C)C(=O)N4)CC2)cc1 (stereo unspecified)	256 °C
COc1ccc(C=CC(C)=O)cc1	74 °C
COC(=O)c1ccc2oc3c(c(=O)c2c1)CCC3=Cc1ccc(N)cc1	265 to 268 °C
O=Cc1ccc(C=Cc2ccc(C=O)cc2)cc1	169 °C
CC(=O)COc1ccc(C2CCCCC2)cc1	58 °C
CCOC(=O)c1oc2c(-c3ccc(F)cc3)c(-c3ccc(S(C)(=O)=O)cc3)nn2c1C	203 to 204 °C

Compound	melting point
CCCCOc1ccc(C(=O)c2cccc(C(=O)O)c2)c(OC)c1	144 to 145 °C
COc1cc(N)c(Cl)cc1C(=O)NCC1CCN(CCCCCC(=O)c2ccc(Cl)c(Cl)c2)CC1	203 to 205 °C
CC1(C)CC(=C(c2ccc(O)cc2)c2ccc(C#CCCO)cc2)CC(C)(C)C1	183 to 184 °C
COc1cc(Br)ccc1OC(=O)c1ccccc1	73 to 75 °C
Nc1ccc(NC(=O)c2ccc(C(=O)Nc3ccc(N)cc3Cl)cc2)c(Cl)c1	261 °C
C[C@H]1CCCC(C)(C)[C@@H]1[C@@H](O)c1ccc(Cl)c(F)c1	61.1 to 63.6 °C
O=C1c2cccc(Cl)c2C(O)N1c1ccc2ccc(Cl)nc2n1 (stereo unspecified)	270 °C
COc1cc(OC)cc(N2CCN(C(=S)Nc3nc4ccccc4nc3OC)CC2)c1	141 to 143 °C
CC(C)(C)OC(=O)N1CCn2c(c(C(N)=O)c(C#N)c2C2CC2)C1	221 to 222 °C
C[Si](C)(C)C#Cc1ccc2c(c1)C(c1ccccc1)=NCc1c(C(=O)OCC(F)(F)F)ncn1-2	107 to 110 °C
Cc1ccc(S(=O)(=O)OCCCC2CCN(C(c3ccccc3)(c3ccccc3)c3ccccc3)CC2)cc1	131 °C
NC(=NCC(F)(F)F)Nc1ccnc(CCCO)n1	136 to 138 °C
CC(C)C[C@H](NC(=O)OC(C)(C)C)C(=O)NCC(=O)OCCCNc1cccc2c1C(=O)c1ccccc1C2=O	86 °C
Oc1cc(Br)cc(O)c1F	83 to 86 °C
COc1ccc(C[C@H](NC(=O)OC(C)(C)C)C(=O)c2ccc(O)cc2)cc1	133 to 135 °C
CC(=O)NC[C@@H]1C[C@H]1c1cccc2c1C[C@@H](CCCCc1ccccc1)O2	65 to 66 °C
COc1ccc(C2CCN(C(=O)C(=O)NO)CC2)cc1CC1CCCC1	138 °C
O=CNNC(=S)Nc1ccccc1F	148 to 149 °C
O=C1Cc2cc(Cl)cc(C(=O)c3ccc(F)cc3)c2N1	222 to 225 °C
CCOC(=O)c1cn(CC)c2cc(OS(=O)(=O)C(F)(F)F)c(F)cc2c1=O	83 to 85 °C
COc1ccc(O)c(C(=O)NCCc2ccc([N+](=O)[O-])cc2)c1	200 °C
Cc1cc(N=Nc2ccccn2)ccc1-c1ccc(-c2ccc(N=Nc3ccccn3)cc2C)s1	152 to 153 °C
CCOCCc1c(-c2ccccc2)nc(Br)n2ncnc12	159 to 160 °C

Other lines, results leading:

melting point	Compound
248 to 250 °C	Cc1nc(-c2nccs2)c2nc(-c3ccccc3)cc-2[nH]1
183 to 184 °C	CC(C)C#CC1(C(F)(F)F)OCC(=O)Nc2ccc(Cl)cc21 (stereo unspecified)
172 to 173 °C	Cc1nc(-c2ccc(C(F)(F)F)cc2)sc1CN(C)c1ccc(OCC(=O)O)c(I)c1
299 to 300 °C	Cc1nnc(-c2ccccn2)[nH]c1=O
127 to 132 °C	Cc1cc([N+](=O)[O-])cc(C)c1Oc1ccc(O)c(Cc2ccc(F)cc2)c1
169 °C	CCOC(=O)C1=C(C)Nc2nc(N3CCCCC3)nc(N3CCCCC3)c2C1c1cccc([N+](=O)[O-])c1 (stereo unspecified)
156 to 158 °C	COc1ccc([N+](=O)[O-])c(Nc2cccc(O)c2)n1
139 to 140 °C	C=CCN(CC=C)CC(=O)N1c2ccccc2N(C)C(=O)c2cnc(-c3ccccc3)nc21
151 °C	COc1c(C(=O)O)cc(Cl)c(N)c1C
239 to 240 °C	COC(=O)c1cn2c(n1)COc1ccc(Cl)cc1-2
136 to 138 °C	CC(C)(C)OC(=O)CC1=CCC(=O)Nc2ccccc21
120 to 122 °C	CCC(CC)Oc1cc(C)nc(Nc2c(C)cc(C)cc2C)c1C(=O)n1ccnc1
69 to 73 °C	CCN1C(=O)CNCc2cc(OC)c(N)cc21
92 °C	Cc1coc2cc(O)ccc12
218 to 223 °C	Cc1ccc2c(c1Cl)S(=O)(=O)N=CN2C1CC1
257 to 260 °C	CNC(=O)c1ncn(-c2cc3c(=O)n(NS(C)(=O)=O)c(=O)[nH]c3cc2C(F)(F)F)n1

melting point	Compound
196 to 198 °C	C=CCNc1cc(C)nc2c(C)n[nH]c12
242 to 244 °C	O=C(Cn1c(-c2ccc(Br)cc2)nc2cccnc21)Nc1ccccc1
141 to 143 °C	Cc1ccc(S(=O)(=O)N(C)c2ncc(Cl)cc2[N+](=O)[O-])cc1
97 to 100 °C	Cc1cc(C)cc(C(=O)N2CCNC(c3ccc(Cl)c(Cl)c3)C2)c1 (single isomer, unassigned; (+))
91 to 93 °C	CCCOc1ccc(CSc2nc(SC)n(CC)c(=O)c2C)cc1
95 to 96 °C	CC(=S)NC[C@H]1CN(c2ccc3c(c2)C[C@@H](C)N3C=O)C(=O)O1
62 to 64 °C	CCN(CC)S(=O)(=O)c1cc(Cl)cc(O)c1O
95 to 96 °C	O=CCN1CCc2ccc(Br)cc2C1=O
79 to 82 °C	C#Cc1cc(C)c(Oc2ccc(N)c(Nc3ccc(C#N)cc3)n2)c(C)c1
98 to 101 °C	COC(=O)C(C)Oc1noc2cc(Cl)c([N+](=O)[O-])cc12 (stereo unspecified)
> 250 °C	Oc1cnc2cccc(Cl)c2n1
304 to 307 °C	CCCn1c(=O)c2[nH]c(-c3cc(C)n(CC(=O)Nc4cccc(Cl)c4)n3)nc2n(CCC)c1=O
74 to 76 °C	COc1c(C)c(C)c2c(c1C)CC(CC(=O)O)O2 (racemic)
147 to 149 °C	CC(=O)NCCNc1nc(-c2ccc(=O)n(C(C)C)n2)c(-c2ccccc2)nc1N
250 °C	COc1ccc(Nc2cc(C)nc(N)n2)cc1Cl
149 °C	COC(=O)c1ccn2cc(C)nc2c1
